Experimental findings from US10981911B2, “Imidazopyrrolopyridine as inhibitors of the JAK family of kinases” (Janssen Pharmaceutica NV, priority 2016, dated 2021) are described below.

By IC50 is commonly meant the concentration that gives 50% inhibition.

What all share (format): biochemical
The target of test [1] is JAK1-JH1JH2 (Homo sapiens (Human), UniProt P23458). The experiment in a line: Enzymatic inhibition assay (RapidFire HTMS), JAK1. The note with it: 12.5 μM ATP, 200 μM substrate; read-out: JAK1-JH2JH1 IC50. Summed up:
(§1)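 Quenched with 0.5% TFA plus internal-standard peptide; phosphorylated product quantified by RapidFire C4 SPE–ESI-MS, 11-point 1:3 or 1:4 dilutions in duplicate.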

In test [2] the target is JAK2-JH1JH2 (Homo sapiens (Human), UniProt O60674). As to the kind of experiment: Enzymatic inhibition assay (RapidFire HTMS), JAK2. The note with it: 30 μM ATP, 40 μM substrate. Summed up: as §1
In test [3] the target is JAK3-JH1JH2 (Homo sapiens (Human), UniProt P52333). The experiment in a line: Enzymatic inhibition assay (RapidFire HTMS), JAK3. The note with it: 150 μM ATP, 40 μM substrate. Summed up: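 JAK3 JH1JH2 reaction incubated 45 min at 25 °C, then quenched with 0.5% TFA containing 0.15 μM internal standard peptide. Phosphopeptide product measured by RapidFire C4 SPE–ESI MS (positive mode); inhibition from product decrease versus uninhibited enzyme, 11-point 1:3 or 1:4 dilutions in duplicate.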

Test [4] addresses Tyk2-JH1JH2 (Homo sapiens (Human), UniProt P29597, C1142A/C936A). As to the kind of experiment: Enzymatic inhibition assay (RapidFire HTMS), Tyk2. The note with it: 50 μM ATP, 200 μM substrate. Summed up:
as §1

Sequence of JAK2-JH1JH2 (O60674 532-1132): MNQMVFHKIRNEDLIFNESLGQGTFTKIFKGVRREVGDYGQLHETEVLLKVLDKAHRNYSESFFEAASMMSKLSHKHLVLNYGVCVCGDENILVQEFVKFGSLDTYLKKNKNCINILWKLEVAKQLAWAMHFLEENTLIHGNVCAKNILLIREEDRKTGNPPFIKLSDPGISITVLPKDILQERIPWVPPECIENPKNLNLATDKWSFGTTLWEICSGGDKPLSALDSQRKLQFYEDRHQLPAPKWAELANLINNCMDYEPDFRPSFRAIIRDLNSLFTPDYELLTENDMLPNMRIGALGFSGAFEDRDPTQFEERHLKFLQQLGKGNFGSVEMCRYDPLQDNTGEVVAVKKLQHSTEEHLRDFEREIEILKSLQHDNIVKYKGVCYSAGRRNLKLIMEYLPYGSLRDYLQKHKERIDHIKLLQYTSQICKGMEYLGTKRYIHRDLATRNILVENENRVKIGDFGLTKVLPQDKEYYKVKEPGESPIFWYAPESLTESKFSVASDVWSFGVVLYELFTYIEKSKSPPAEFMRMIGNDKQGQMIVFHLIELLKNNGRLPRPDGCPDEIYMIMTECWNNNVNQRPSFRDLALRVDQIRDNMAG
Sequence of Tyk2-JH1JH2 (P29597 580-1182 C936A/C1142A): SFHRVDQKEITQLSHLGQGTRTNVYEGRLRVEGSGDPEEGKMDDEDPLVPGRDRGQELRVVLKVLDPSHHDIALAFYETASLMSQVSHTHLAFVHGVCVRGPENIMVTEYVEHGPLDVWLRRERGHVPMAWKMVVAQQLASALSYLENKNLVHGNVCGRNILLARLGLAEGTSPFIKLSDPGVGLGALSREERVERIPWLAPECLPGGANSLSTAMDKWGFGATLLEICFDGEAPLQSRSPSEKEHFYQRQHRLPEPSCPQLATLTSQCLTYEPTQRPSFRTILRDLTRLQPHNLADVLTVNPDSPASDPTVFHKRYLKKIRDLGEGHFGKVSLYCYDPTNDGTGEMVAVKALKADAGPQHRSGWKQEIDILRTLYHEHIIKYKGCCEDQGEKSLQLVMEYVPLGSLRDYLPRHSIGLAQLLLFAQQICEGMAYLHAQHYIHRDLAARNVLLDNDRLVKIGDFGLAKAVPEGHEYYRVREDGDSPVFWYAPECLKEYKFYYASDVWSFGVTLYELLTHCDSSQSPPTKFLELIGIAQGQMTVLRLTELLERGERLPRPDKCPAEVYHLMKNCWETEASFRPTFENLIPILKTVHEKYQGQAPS
Sequence of JAK1-JH1JH2 (P23458 574-1154): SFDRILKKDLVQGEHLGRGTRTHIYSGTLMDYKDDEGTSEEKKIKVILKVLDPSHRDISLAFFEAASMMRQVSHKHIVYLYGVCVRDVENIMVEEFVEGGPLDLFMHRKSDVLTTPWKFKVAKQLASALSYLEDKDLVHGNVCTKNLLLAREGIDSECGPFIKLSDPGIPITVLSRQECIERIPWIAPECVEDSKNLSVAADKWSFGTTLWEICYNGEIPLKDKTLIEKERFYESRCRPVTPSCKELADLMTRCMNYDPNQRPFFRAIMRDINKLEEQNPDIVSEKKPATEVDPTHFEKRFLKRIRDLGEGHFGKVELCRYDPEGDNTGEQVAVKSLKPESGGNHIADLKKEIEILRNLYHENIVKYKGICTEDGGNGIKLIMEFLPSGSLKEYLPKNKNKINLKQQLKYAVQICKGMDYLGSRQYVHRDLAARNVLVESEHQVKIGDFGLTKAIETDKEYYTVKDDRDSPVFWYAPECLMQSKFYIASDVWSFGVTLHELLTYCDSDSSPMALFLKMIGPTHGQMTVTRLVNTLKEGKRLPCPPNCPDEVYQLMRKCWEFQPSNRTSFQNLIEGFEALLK
Sequence of JAK3-JH1JH2 (P52333 512-1124): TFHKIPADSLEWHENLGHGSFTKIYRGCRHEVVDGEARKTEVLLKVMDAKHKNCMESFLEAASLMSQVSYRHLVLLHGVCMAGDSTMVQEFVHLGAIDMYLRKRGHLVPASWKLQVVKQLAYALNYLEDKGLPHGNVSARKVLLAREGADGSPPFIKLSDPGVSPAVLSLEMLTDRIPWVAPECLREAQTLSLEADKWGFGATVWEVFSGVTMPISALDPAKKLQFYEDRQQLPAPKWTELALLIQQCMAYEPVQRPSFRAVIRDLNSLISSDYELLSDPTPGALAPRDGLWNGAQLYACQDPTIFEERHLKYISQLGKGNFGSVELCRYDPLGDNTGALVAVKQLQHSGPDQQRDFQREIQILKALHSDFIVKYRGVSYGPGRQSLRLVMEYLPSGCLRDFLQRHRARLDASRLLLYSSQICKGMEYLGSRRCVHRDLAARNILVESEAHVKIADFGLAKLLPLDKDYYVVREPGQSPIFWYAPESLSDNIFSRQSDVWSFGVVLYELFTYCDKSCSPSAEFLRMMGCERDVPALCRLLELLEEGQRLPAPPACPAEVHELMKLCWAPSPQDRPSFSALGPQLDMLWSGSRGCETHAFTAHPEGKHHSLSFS

As to `N#CC[C@H]1CC[C@H](n2c(CC(=O)NC34CCC(CO)(CC3)C4)nc3cnc4[nH]ccc4c32)CC1` [Ex. 131, 2-(1-((1r,4r)-4-(Cyanomethyl)cyclohexyl)-1,6-dihydroimidazo[4,5-d]pyrrolo[2,3-b]pyridin-2-yl)-N-(4-(hydroxymethyl)bicyclo[2.2.1]heptan-1-yl)acetamide], the IC50 turned out to be 0.8 nM in test [1], 5.6 nM in test [2], 100 nM in test [3] and 10.5 nM in test [4].
The corresponding values for `CC(C)(O)CNC(=O)Cc1nc2cnc3[nH]cc(F)c3c2n1[C@H]1CC[C@H](CC#N)CC1` [Ex. 132, 2-(1-((1r,4r)-4-(Cyanomethyl)cyclohexyl)-8-fluoro-1,6-dihydroimidazo[4,5-d]pyrrolo[2,3-b]pyridin-2-yl)-N-(2-hydroxy-2-methylpropyl)acetamide] are 0.8 nM, 13.8 nM, 61.7 nM and 16.1 nM.
As to `CNC(=O)c1nc2cnc3[nH]ccc3c2n1[C@H]1CC[C@H](CC#N)CC1` [Ex. 133, 1-((1r,4r)-4-(Cyanomethyl)cyclohexyl)-N-methyl-1,6-dihydroimidazo[4,5-d]pyrrolo[2,3-b]pyridine-2-carboxamide], the IC50 was found to be 0.8 nM in test [1], 9.4 nM in test [2], 154 nM in test [3] and 19.8 nM in test [4].
With `CS(=O)(=O)N1CC(c2nc3cnc4[nH]ccc4c3n2[C@H]2CC[C@H](CC#N)CC2)C1` [Ex. 134, 2-((1r,4r)-4-(2-(1-(Methylsulfonyl)azetidin-3-yl)imidazo[4,5-d]pyrrolo[2,3-b]pyridin-1(6H)-yl)cyclohexyl)acetonitrile], the IC50 in test [1] was found to be 0.8 nM; in test [2], 118 nM; in test [3], 1290 nM; in test [4], 91.2 nM.
The like results for `CC(C)COC(=O)NCc1nc2cnc3[nH]ccc3c2n1[C@H]1CC[C@H](CC#N)CC1` [Ex. 137, Isobutyl ((1-((1r,4r)-4-(Cyanomethyl)cyclohexyl)-1,6-dihydroimidazo[4,5-d]pyrrolo[2,3-b]pyridin-2-yl)methyl)carbamate] were, in that order, 0.9 nM, 25.1 nM, 280 nM and 14.2 nM.
The corresponding values for `N#CCCNC(=O)c1nc2cnc3[nH]ccc3c2n1[C@H]1CC[C@H](CC#N)CC1` [Ex. 138, N-(2-Cyanoethyl)-1-((1r,4r)-4-(cyanomethyl)cyclohexyl)-1,6-dihydroimidazo[4,5-d]pyrrolo[2,3-b]pyridine-2-carboxamide] are 0.9 nM, 18.9 nM, 195 nM and 18.7 nM.
The corresponding values for `N#CC[C@H]1CC[C@H](n2c(CNC(=O)C3CCCCC3)nc3cnc4[nH]ccc4c32)CC1` [Ex. 139, N-((1-((1r,4r)-4-(Cyanomethyl)cyclohexyl)-1,6-dihydroimidazo[4,5-d]pyrrolo[2,3-b]pyridin-2-yl)methyl)cyclohexanecarboxamide] are 0.9 nM, 66.9 nM, 746 nM and 53.5 nM.
For `N#CC[C@H]1CC[C@H](n2c(C3NC(C4CC4)=NO3)nc3cnc4[nH]ccc4c32)CC1` (stereo partly drawn) [Ex. 140, 2-((1r,4r)-4-(2-(3-Cyclopropyl-4,5-dihydro-1,2,4-oxadiazol-5-yl)imidazo[4,5-d]pyrrolo[2,3-b]pyridin-1(6H)-yl)cyclohexyl)acetonitrile], the IC50 in test [1] came to 0.9 nM; in test [2] it was 4.5 nM; in test [3], 56.8 nM; in test [4] it was 14.9 nM.
The corresponding values for `N#CC[C@H]1CC[C@H](n2c(CNS(=O)(=O)C3CCCCC3)nc3cnc4[nH]ccc4c32)CC1` [Ex. 141, N-((1-((1r,4r)-4-(Cyanomethyl)cyclohexyl)-1,6-dihydroimidazo[4,5-d]pyrrolo[2,3-b]pyridin-2-yl)methyl)cyclohexanesulfonamide] are 0.9 nM, 95.8 nM, 4070 nM and 66.7 nM.
Take `CS(C)(=O)=NCc1nc2cnc3[nH]ccc3c2n1[C@H]1CC[C@H](CC#N)CC1` [Ex. 142, 2-((1r,4r)-4-(2-(((Dimethyl(oxo)-λ^6-sulfanylidene)amino)methyl)imidazo[4,5-d]pyrrolo[2,3-b]pyridin-1(6H)-yl)cyclohexyl)acetonitrile]: the IC50 is 0.9 nM in test [1], 10 nM in test [2], 383 nM in test [3] and 6.9 nM in test [4].
The corresponding values for `N#CC[C@H]1CC[C@H](n2c(-c3ccc(S(F)(F)(F)(F)F)cc3)nc3cnc4[nH]ccc4c32)CC1` [Ex. 143, 2-((1r,4r)-4-(2-(4-(Pentafluoro-λ^6-sulfanyl)phenyl)imidazo[4,5-d]pyrrolo[2,3-b]pyridin-1(6H)-yl)cyclohexyl)acetonitrile] are 0.9 nM, 38.5 nM, 1270 nM and 117 nM.
The like results for `N#CC[C@H]1CC[C@H](n2c(CNC(=O)c3cn[nH]c3)nc3cnc4[nH]ccc4c32)CC1` [Ex. 144, N-((1-((1r,4r)-4-(Cyanomethyl)cyclohexyl)-1,6-dihydroimidazo[4,5-d]pyrrolo[2,3-b]pyridin-2-yl)methyl)-1H-pyrazole-4-carboxamide] were, in that order, 1 nM, 43.1 nM, 376 nM and 16.2 nM.
The corresponding values for `N#CC[C@H]1CC[C@H](n2c(COC(=O)NCC3CCCCC3)nc3cnc4[nH]ccc4c32)CC1` [Ex. 146, (1-((1r,4r)-4-(Cyanomethyl)cyclohexyl)-1,6-dihydroimidazo[4,5-d]pyrrolo[2,3-b]pyridin-2-yl)methyl (cyclohexylmethyl)carbamate] are 1.1 nM, 18 nM, 319 nM and 11.3 nM.
In the case of `CC(=O)N1CC(c2nc3cnc4[nH]ccc4c3n2[C@H]2CC[C@H](CC#N)CC2)C1` [Ex. 147, 2-((1r,4r)-4-(2-(1-Acetylazetidin-3-yl)imidazo[4,5-d]pyrrolo[2,3-b]pyridin-1(6H)-yl)cyclohexyl)acetonitrile], the IC50 was determined as 1.1 nM in test [1], 315 nM in test [2], 1970 nM in test [3] and 87.9 nM in test [4].
The like results for `N#CC[C@H]1CC[C@H](n2c(CNC(=O)c3ccccc3)nc3cnc4[nH]ccc4c32)CC1` [Ex. 148, N-((1-((1r,4r)-4-(Cyanomethyl)cyclohexyl)-1,6-dihydroimidazo[4,5-d]pyrrolo[2,3-b]pyridin-2-yl)methyl)benzamide] were, in that order, 1.1 nM, 50.4 nM, 767 nM and 36.2 nM.
Take `N#CC[C@H]1CC[C@H](n2c(CC(=O)N3CCC[C@@H]3CO)nc3cnc4[nH]ccc4c32)CC1` [Ex. 149, 2-((1r,4r)-4-(2-(2-((R)-2-(Hydroxymethyl)pyrrolidin-1-yl)-2-oxoethyl)imidazo[4,5-d]pyrrolo[2,3-b]pyridin-1(6H)-yl)cyclohexyl)acetonitrile]: the IC50 came to 1.1 nM in test [1], 54.4 nM in test [2], 926 nM in test [3] and 13.9 nM in test [4].
The corresponding values for `CC(C)/C(N)=N/OCc1nc2cnc3[nH]ccc3c2n1[C@H]1CC[C@H](CC#N)CC1` [Ex. 150, (Z*)—N-((1-((1r,4r)-4-(Cyanomethyl)cyclohexyl)-1,6-dihydroimidazo[4,5-d]pyrrolo[2,3-b]pyridin-2-yl)methoxy)isobutyrimidamide] are 1.2 nM, 10 nM, 110 nM and 34 nM.
The like results for `N#CC[C@H]1CC[C@H](n2c(CO/N=C(\N)C3CC3)nc3cnc4[nH]ccc4c32)CC1` [Ex. 151, (Z*)—N-((1-((1r,4r)-4-(Cyanomethyl)cyclohexyl)-1,6-dihydroimidazo[4,5-d]pyrrolo[2,3-b]pyridin-2-yl)methoxy)cyclopropanecarboximidamide] were, in that order, 1.4 nM, 10.6 nM, 103 nM and 37.1 nM.
The corresponding values for `N#CC[C@H]1CC[C@H](n2c(CO/N=C(\N)C34CC5CC(CC(C5)C3)C4)nc3cnc4[nH]ccc4c32)CC1` [Ex. 152, (3R,5R,7R,E*)-N′-((1-((1r,4r)-4-(Cyanomethyl)cyclohexyl)-1,6-dihydroimidazo[4,5-d]pyrrolo[2,3-b]pyridin-2-yl)methoxy)adamantane-1-carboximidamide] are 2.8 nM, 21.2 nM, 803 nM and 53.5 nM.
`N#CC[C@H]1CC[C@H](n2c(CNC(=O)NCC3CCCCC3)nc3cnc4[nH]ccc4c32)CC1` [Ex. 155, 1-((1-((1r,4r)-4-(Cyanomethyl)cyclohexyl)-1,6-dihydroimidazo[4,5-d]pyrrolo[2,3-b]pyridin-2-yl)methyl)-3-(cyclohexylmethyl)urea]: the IC50 was 1.3 nM in test [1], 48.5 nM in test [2], 368 nM in test [3] and 20.1 nM in test [4].
On to `N#CC[C@H]1CC[C@H](n2c(CNC(=N)C34CC5CC(CC(C5)C3)C4)nc3cnc4[nH]ccc4c32)CC1` [Ex. 156, (3R,5R,7R)—N-((1-((1r,4r)-4-(Cyanomethyl)cyclohexyl)-1,6-dihydroimidazo[4,5-d]pyrrolo[2,3-b]pyridin-2-yl)methyl)adamantane-1-carboximidamide], for which the IC50 in test [1] turned out to be 1.3 nM; in test [2], 33.6 nM; in test [3] it was 1320 nM; in test [4] it was 2.9 nM.
